Assay results as given in patent US7427625B2, “Substituted thiatriazaacenaphthylene-6-carbonitrile kinase inhibitors” (Janssen Pharmaceutica, N.V., priority 2006, dated 2008).

Experiments:
Aurora-A = target: T1, Aurora-A (Mus musculus, UniProt P97477); test: Aurora-A Screening Assay; format: biochemical, murine; conditions: for inhibition at 1 µM: test concentration of 1 μM, read-out: Aurora-A percent inhibition
T1 construct: followed by the full length protein encoding the murine Aurora-A; polyhistidine (N); made in house; host or cells: sf9 insect cells
T1 sequence (P97477 1-395): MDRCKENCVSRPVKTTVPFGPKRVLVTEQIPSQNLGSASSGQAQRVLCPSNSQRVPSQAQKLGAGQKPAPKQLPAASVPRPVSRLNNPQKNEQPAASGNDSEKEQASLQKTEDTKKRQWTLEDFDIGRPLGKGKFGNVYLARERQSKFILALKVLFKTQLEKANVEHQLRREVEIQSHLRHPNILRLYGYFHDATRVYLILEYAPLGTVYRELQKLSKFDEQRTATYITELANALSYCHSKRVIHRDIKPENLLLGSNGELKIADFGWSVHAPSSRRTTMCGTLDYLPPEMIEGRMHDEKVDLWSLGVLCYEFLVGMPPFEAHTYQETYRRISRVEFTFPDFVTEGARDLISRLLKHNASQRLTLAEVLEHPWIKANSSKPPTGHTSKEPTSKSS
Procedure: (§1) A kinase reaction mixture was prepared containing 50 mM Tris-HCl at pH 8, 10 mM, MgCl20.1 mM […], 1 mM DTT, 10 μM ATP, 0.025 μM biotinylated histone-H1 peptide substrate and 0.2 μCuries per well ^33P-γ-ATP (2000-3000 Ci/mmol). 70 μL of the kinase reaction mixture was dispensed into the well of a Streptavidin FlashPlate.
(§2) Test compound stock in 100% DMSO (1 μL) was added to the wells resulting in a final concentration of 1% DMSO in the reaction with a 100 μL final reaction volume. Each enzyme was diluted in 50 mM Tris-HCl pH=8.0, 0.1% BSA and 30 μL was added to each well to initiate the reaction. The reaction was incubated for one hour at 30° C. At the end of the 1 hr incubation, the reaction was terminated by aspirating the mixture from the plate and washing the wells twice with PBS containing 100 mM EDTA. The biotinylated peptide substrate became immobilized on the Flashplate^198 and the incorporation of ^33P-γ-ATP was measured by reading the plate on a scintillation counter. Inhibition of the enzymatic activity was measured by observing a reduced amount of ^33P-γ-ATP incorporated into the immobilized peptide.
Aurora-A is a fusion protein containing a polyhistidine tag at the N terminus followed by the full length protein encoding the murine Aurora-A (Accession number GB BC014711) expressed and purified from sf9 insect cells. The assay used 400 ng of the N-terminal biotinylated peptide biotin-GRTGRRNSI-amide (Aurora-A) per well.
(§3) The IC50 was derived according to the procedure described in Example 2. For those compounds without an IC50, the percent inhibition results are shown at a test concentration of 1 μM.

HER-2 = target: T2, HER-2 (Homo sapiens, UniProt P04626); test: HER-2 Kinase Assay; format: biochemical; conditions: for inhibition at 1 µM: test concentration of 1 μM, read-out: HER-2 percent inhibition
T2 construct: the nucleotides encoding amino acids 679 to 1255 of HER-2; purchased Proqinase (Freiburg, Germany)
T2 sequence (P04626 679-1255): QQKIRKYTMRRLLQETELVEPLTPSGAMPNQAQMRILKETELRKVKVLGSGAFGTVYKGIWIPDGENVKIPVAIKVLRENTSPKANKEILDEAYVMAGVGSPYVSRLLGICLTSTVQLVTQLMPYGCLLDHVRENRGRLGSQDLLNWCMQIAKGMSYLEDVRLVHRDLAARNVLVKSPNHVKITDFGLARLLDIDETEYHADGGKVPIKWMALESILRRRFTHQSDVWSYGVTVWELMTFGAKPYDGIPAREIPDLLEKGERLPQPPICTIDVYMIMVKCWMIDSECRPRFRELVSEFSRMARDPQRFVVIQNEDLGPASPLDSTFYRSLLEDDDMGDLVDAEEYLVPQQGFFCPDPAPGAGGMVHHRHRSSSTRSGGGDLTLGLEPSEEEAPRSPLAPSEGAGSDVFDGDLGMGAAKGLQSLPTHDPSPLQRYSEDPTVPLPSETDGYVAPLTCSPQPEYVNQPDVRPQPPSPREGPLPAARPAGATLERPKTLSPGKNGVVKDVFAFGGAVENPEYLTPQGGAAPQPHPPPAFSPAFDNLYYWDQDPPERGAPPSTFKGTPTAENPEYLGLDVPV
Procedure: HER-2 kinase was purified at Proqinase (Freiburg, Germany) from a construct that consisted of a fusion of GST (Glutathione-S-Transferase), HIS6-Thrombin and the nucleotides encoding amino acids 679 to 1255 of HER-2.
A mixture of a 10× kinase reaction buffer (600 mM Hepes at pH 7.5, 30 mM Magnesium Chloride, 0.03 mM Sodium Vanadate and 500 μg/mL PEG 20,000), DTT (1.2 mM final from a 10 mM stock), ATP (1 μM from a 10 mM stock), biotinylated polyGluTyr (1.5 ng/μL final from stock of 1 μg/μL prepared by Upstate Biotechnologies, Lake Placid, N.Y.), Manganese Chloride (3 mM final from a 1 M stock), γ-^33P-ATP (10 μCi/μL stock) and water (70 μL/well) was added to each well of a Streptavidin Flashplate (Cat. #SMP103, NEN, Boston, Mass.).
Test compound stock (1 μL) was added to the appropriate wells. Diluted GSTHER2 kinase (6.7 ng/μL diluted into 50 mM Tris-HCl at pH 8.0 and 0.1% bovine serum albumin) (30 μL) was added (total volume of 200 ng/well) to initiate the reactions.
The reaction plates were incubated at 30° C. for 1 hr. The reaction was terminated by aspiring the reaction mixture from the plate wells and washing the wells three times with a 1×PBS stop buffer (300 μL) and 100 mM EDTA. After the final wash, the same stop buffer (200 μL) was again added to the wells. The plates were then sealed and read on the TopCount scintillation counter.
as §3

VEGF-R2 = target: T3, VEGF-R2 (Rattus norvegicus, UniProt O08775); test: VEGF-R2 Screening Assay; format: biochemical; conditions: for inhibition at 1 µM: test concentration of 1 μM, read-out: VEGF-R2 percent inhibition
T3 construct: polyhistidine (N)
T3 sequence (O08775 786-1343): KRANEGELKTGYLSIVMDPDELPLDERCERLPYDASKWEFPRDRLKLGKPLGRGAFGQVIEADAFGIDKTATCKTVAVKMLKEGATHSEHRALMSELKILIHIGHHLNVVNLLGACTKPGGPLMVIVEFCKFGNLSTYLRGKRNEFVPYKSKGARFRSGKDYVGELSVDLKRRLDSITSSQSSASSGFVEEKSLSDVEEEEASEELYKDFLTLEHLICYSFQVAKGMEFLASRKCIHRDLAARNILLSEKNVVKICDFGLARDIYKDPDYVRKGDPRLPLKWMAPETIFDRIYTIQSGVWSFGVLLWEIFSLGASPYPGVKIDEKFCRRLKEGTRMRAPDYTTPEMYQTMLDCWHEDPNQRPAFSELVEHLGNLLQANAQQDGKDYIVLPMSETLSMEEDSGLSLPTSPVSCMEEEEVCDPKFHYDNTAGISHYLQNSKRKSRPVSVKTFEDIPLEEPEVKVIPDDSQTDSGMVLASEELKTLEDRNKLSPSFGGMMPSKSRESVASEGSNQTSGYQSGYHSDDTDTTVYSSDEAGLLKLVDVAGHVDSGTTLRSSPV
Procedure: as §1, §2
The VEGF-R2 enzyme is a fusion protein containing a polyhistidine tag at the N terminus followed by amino acids 786 to 1343 of the rat VEGF-R2 kinase domain (Accession number U93306). The assay used 150 ng of the N-terminal biotinylated peptide biotin-KHKKLAEGSAYEEV-amide (VEGF-R2) per well.
as §3

EGFR = target: T4, EGFR (Homo sapiens, UniProt P00533); test: EGFR Kinase Assay; format: biochemical; conditions: for inhibition at 2 µM: test concentration of 2 μM, read-out: EGFR percent inhibition
T4 construct: The intracellular portion of EGFR started at nucleotide 2189 (corresponding to amino acid 667) and ended at the termination codon; made in house; host or cells: Sf9 insect cells (baculovirus)
T4 sequence (P00533 669-1210 limits assumed): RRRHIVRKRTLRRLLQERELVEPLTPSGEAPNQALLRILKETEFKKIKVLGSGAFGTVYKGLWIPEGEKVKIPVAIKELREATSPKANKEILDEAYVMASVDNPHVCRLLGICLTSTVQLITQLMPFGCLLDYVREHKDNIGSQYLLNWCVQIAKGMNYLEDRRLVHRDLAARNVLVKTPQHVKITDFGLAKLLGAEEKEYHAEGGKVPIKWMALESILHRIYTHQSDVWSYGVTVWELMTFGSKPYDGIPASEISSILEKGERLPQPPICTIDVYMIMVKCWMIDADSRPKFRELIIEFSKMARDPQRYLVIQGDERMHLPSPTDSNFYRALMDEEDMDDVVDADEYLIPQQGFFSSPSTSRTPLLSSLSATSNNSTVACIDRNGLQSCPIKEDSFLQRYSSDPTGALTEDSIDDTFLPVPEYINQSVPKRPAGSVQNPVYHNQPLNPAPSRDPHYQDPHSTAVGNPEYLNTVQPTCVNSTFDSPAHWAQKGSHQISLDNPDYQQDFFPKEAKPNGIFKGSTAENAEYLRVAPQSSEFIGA
Text: The EGFR kinase used was a fusion of Glutathione-S-Transferase (GST) and a PCR amplified intracellular portion of EGFR (NM_005228). The intracellular portion of EGFR started at nucleotide 2189 (corresponding to amino acid 667) and ended at the termination codon. The portion was PCR amplified with primers that added the lambda attB sequences to each end, recombined into an entry vector, then into a GST destination vector (as described in Gateway Technologies Manual by Invitrogen Corporation, Carlsbad, Calif.).
The destination vector was recombined in the DH10BAC strain of bacteria to produce a bacmid. The bacmid was transfected into Sf 9 cells and the supernatant containing the baculovirus was collected. The GSTEGFR protein was purified using large cultures of Sf 9 cells infected with stock virus. After an appropriate period of time, the cells were collected and lysed. The GSTEGFR was then purified from the lysate on Glutathione-Sepharose columns (as described by Amersham Biosciences, Buckinghamshire, United Kingdom).
The EGFR substrate was prepared by biotinylating polyGluTyr (128 mg) (Sigma, St. Louis, Mo.) in a 1×PBS buffer incubated together with a 12-fold molar excess of Sulfo-NHS-LC-Biotin on ice for at least 2 hrs. The free biotin was separated from the biotinylated polyGluTyr on a gel filtration column.
A mixture of a 10× kinase buffer (500 mM Tris at pH 8.0, 100 mM Magnesium Chloride and 1 mM Sodium Vanadate), DTT (1 mM final from 500 mM stock), ATP (5 μM final from 10 mM stock), biotinylated polyGluTyr (10 μg/μL stock), γ-^33P ATP (10 μCi/μL stock) and water was added to each well (90 μL/well) of a Streptavidin Flashplate (Perkin Elmer, Wellesley, Mass.).
Test compound in 100% DMSO (2 μL) was added to the appropriate wells. Diluted GSTEGFR (1:300 dilution in 50 mM Tris at pH 8.0 and 0.1% bovine serum albumin) (10 μL) was added to the wells to initiate the reactions.
The plates were incubated at 30° C. for 1 hr with shaking. The reacted contents were removed and the plates were sequentially washed three times with a 1×PBS stop buffer (300 μL without Magnesium and Calcium) and 100 mM EDTA. After the final wash, the same stop buffer (200 μL) was added to the wells. The plates were then sealed and read on the TopCount scintillation counter.
Test compounds were assayed in triplicate at 16 concentrations at half-log dilutions starting at 200 uM. A maximum and minimum signal for the assay was determined on each plate. The percent inhibition of a test compound was calculated according to the formula
For a series of test concentrations, the IC50 was derived by graphing percent inhibition against the log of the concentrations tested for a given compound. For those compounds without an IC50, the percent inhibition results are shown at a test concentration of 2 μM.

| SMILES | inhibition at 1 µM (Aurora-A) | inhibition at 1 µM (HER-2) | IC50 (VEGF-R2) | IC50 (EGFR) | IC50 (Aurora-A) | IC50 (HER-2) | inhibition at 1 µM (VEGF-R2) | inhibition at 2 µM (EGFR) |
| --- | --- | --- | --- | --- | --- | --- | --- | --- |
| N#Cc1cnc2sc(C(=O)Nc3ccc(CN4CCC(CO)CC4)cc3)c3c2c1N(c1c(Cl)ccc2c1OCO2)C(=O)N3 [Cpd 22, 5-(5-chloro-benzo[1,3]dioxol-4-yl)-6-cyano-4-oxo-4,5-dihydro-3H-1-thia-3,5,8-triaza-acenaphthylene-2-carboxylic acid [4-(4-hydroxymethyl-piperidin-1-ylmethyl)-phenyl]-amide] | 15% | 48% | > 100 µM | 567 nM | – | – | – | – |
| CCOC(=O)c1sc2nc(O)c(C#N)c3c2c1NC(=O)N3c1ccc(Oc2ccccc2)cc1 [Cpd 52, 6-cyano-7-hydroxy-4-oxo-5-(4-phenoxy-phenyl)-4,5-dihydro-3H-1-thia-3,5,8-triaza-acenaphthylene-2-carboxylic acid ethyl ester] | – | – | > 100 µM | 16.9 nM | > 100 µM | > 10000 nM | – | – |
| C[C@@H]1CN(Cc2ccc(NC(=O)c3sc4ncc(C#N)c5c4c3NC(=O)N5c3c(Cl)ccc4c3OCO4)cc2)C[C@H](C)O1 [Cpd 25, 5-(5-chloro-benzo[1,3]dioxol-4-yl)-6-cyano-4-oxo-4,5-dihydro-3H-1-thia-3,5,8-triaza-acenaphthylene-2-carboxylic acid [4-(2,6-cis-dimethyl-morpholin-4-ylmethyl)-phenyl]-amide] | 18% | 3% | – | – | – | – | 0% | 24% |
| N#Cc1cnc2sc(C(=O)N3CCC(O)CC3)c3c2c1N(c1c(Cl)ccc2c1OCO2)C(=O)N3 [Cpd 28, 5-(5-chloro-benzo[1,3]dioxol-4-yl)-2-(4-hydroxy-piperidine-1-carbonyl)-4-oxo-4,5-dihydro-3H-1-thia-3,5,8-triaza-acenaphthylene-6-carbonitrile] | 25% | 35% | – | – | – | – | 15% | 9% |
| N#Cc1cnc2sc(C(=O)Nc3ccc(CN4CCC(F)(F)CC4)cc3)c3c2c1N(c1c(Cl)ccc2c1OCO2)C(=O)N3 [Cpd 54, 5-(5-chloro-benzo[1,3]dioxol-4-yl)-6-cyano-4-oxo-4,5-dihydro-3H-1-thia-3,5,8-triaza-acenaphthylene-2-carboxylic acid [4-(4,4-difluoro-piperidin-1-ylmethyl)-phenyl]-amide] | – | – | 12.3 µM | – | 15.3 µM | 3370 nM | – | 11% |
| CC(C)(CO)NC(=O)c1sc2ncc(C#N)c3c2c1NC(=O)N3c1c(Cl)ccc2c1OCO2 [Cpd 38, 5-(5-chloro-benzo[1,3]dioxol-4-yl)-6-cyano-4-oxo-4,5-dihydro-3H-1-thia-3,5,8-triaza-acenaphthylene-2-carboxylic acid (2-hydroxy-1,1-dimethyl-ethyl)-amide] | 4% | 0% | – | – | – | – | 2% | 13% |
| N#Cc1cnc2sc(C(=O)N3CCCC(CO)C3)c3c2c1N(c1c(Cl)ccc2c1OCO2)C(=O)N3 (stereo not shown) [Cpd 21, 5-(5-chloro-benzo[1,3]dioxol-4-yl)-2-(3-hydroxymethyl-piperidine-1-carbonyl)-4-oxo-4,5-dihydro-3H-1-thia-3,5,8-triaza-acenaphthylene-6-carbonitrile] | 3% | 13% | > 100 µM | – | – | – | – | 32% |
| N#Cc1cnc2sc(C(=O)Nc3ccc(CN4CCOCC4)cc3)c3c2c1N(c1ccc(Oc2ccccc2)cc1)C(=O)N3 [Cpd 50, 6-cyano-4-oxo-5-(4-phenoxy-phenyl)-4,5-dihydro-3H-1-thia-3,5,8-triaza-acenaphthylene-2-carboxylic acid (4-morpholin-4-ylmethyl-phenyl)-amide] | – | – | > 10 µM | 124 nM | > 100 µM | 2200 nM | – | – |
| N#Cc1cnc2sc(C(=O)Nc3ccc(CN4CCC(N)CC4)cc3)c3c2c1N(c1c(Cl)ccc2c1OCO2)C(=O)N3 [Cpd 47, 5-(5-chloro-benzo[1,3]dioxol-4-yl)-6-cyano-4-oxo-4,5-dihydro-3H-1-thia-3,5,8-triaza-acenaphthylene-2-carboxylic acid [4-(4-amino-piperidin-1-ylmethyl)-phenyl]-amide] | – | – | > 100 µM | 514 nM | > 100 µM | 1870 nM | – | – |
| N#Cc1cnc2sc(C(=O)Nc3ccccn3)c3c2c1N(c1c(Cl)ccc2c1OCO2)C(=O)N3 [Cpd 37, 5-(5-chloro-benzo[1,3]dioxol-4-yl)-6-cyano-4-oxo-4,5-dihydro-3H-1-thia-3,5,8-triaza-acenaphthylene-2-carboxylic acid pyridin-2-ylamide] | 3% | 11% | – | – | – | – | -22% | 10% |
